From patent publication EP1033998B1, “SUPPRESSING BETA-AMYLOID-RELATED CHANGES IN ALZHEIMER'S DISEASE” (Neuralab, Ltd., priority 1997, dated 2005)

Key:
[1] = test system: community-dwelling subjects with mild or moderate dementia; details: cited from earlier work
spleen T-cells = assay: Proliferation assay ([3H]thymidine incorporation) of spleen cells after feeding or nasal treatment and immunization; type: in vivo, SWISSXBDF1 mice; details: fed (75 µg/feeding x 5) or nasally treated (25 µg x 3); immunized two days after last treatment with 100 µg peptide in 50 µg CFA; Figure 1A
Method: (§1) Female BALB/C (6-8 weeks of age); DBA/2; C3H/eb; C47b1/6; SWISSXBDF1 or SHL/J mice were used. The animals were maintained in a temperature- and light-controlled environment with free access to feed and water. Each experimental group contained no fewer than 5 mice.
(§2) Mice were immunized with 100 µg of [1-40]β-amyloid peptide ([1-40]Aβ) emulsified in 50 µg CFA (Difco Laboratories, Inc.). On day 10, popliteal lymph nodes and spleens were removed and for T-cell proliferation and cytokine production.

[2] = test system: popliteal lymph node T-cells; assay: Proliferation assay ([3H]thymidine incorporation) of popliteal lymph node cells after feeding or nasal treatment and immunization; type: in vivo, SWISSXBDF1 mice; details: fed or nasally treated; ten days after foot pad immunization with 100 µg peptide in 50 µg CFA; Figure 1B
Method: as §1, §2

[3] = test system: popliteal lymph node T-cells and spleen cells; assay: Proliferation assay in mouse strains immunized but not fed the peptide; type: in vivo, SJL/J, DBA/1, C57BL/6, BALB/C and C3H/EB mice; details: one in vitro stimulation, Figures 2A, 2B
Method: as §2
Figure 2A compares proliferation of popliteal lymph node T-cells from SJL/J, DBA/I, C57BL/6, BALB/C and C3H/EB mice immunized with [1-40]β-amyloid peptide. Figure 2B compares proliferation in spleen cells from SJL/J, DBA/1, C57BL/6, BALB/C and C3H/EB mice immunized with [1-40]β-amyloid peptide. […] It should be noted that T-cells for the experiment shown in this Example are stimulated with antigen only once in vitro prior to the proliferation assay. Additional stimulations would enlist response from the apparent non-responder strain C57BL/6 and (DBA/1). This experiment provides information about the responding ability of cells from various strains and was useful in designing the subsequent experiments described below. It is believed to be advantageous to select "good responders" (such as C3H/EB) but not "too high responders" (SJL/J was thus not chosen).

[4] = test system: popliteal lymph node and spleen T-cells; assay: Cytokine production assay (capture ELISA) after feeding or nasal administration and immunization; type: in vivo, C3H/EB mice; details: then immunized
Method: C3H/eb mice were fed [1-40]Aβ 500 µg/feeding, 50 µg/feeding, or 5 µg/feeding every day for 5 days (200 µl/feeding). Nasal administration was given at 50 µg/application or 5 µg/application every day for 3 days (10 µl/application).
This experiment also served as a preliminary dose response experiment for this mouse strain.
Figure 5A illustrates the result in secretion of the Th1 immunostimulatory (proinflammatory) cytokine IL-2 in popliteal lymph nodes from C3H/EB mice at various feeding levels (5, 50 and 500 µg/feeding for 5 days) and when nasally administered (5 or 50 µg/application for 3 days) [1-40]β-amyloid peptide prior to immunization (2 days after the last feeding or nasal application) with 100 µg [1-40]β-amyloid peptide in 50 µg CFA. […] Based on the results for Fig. 5A, and Figs. 5B, 6A, 6B, and 7A, 7B, it was decided to use 25 µg nasally and 75 µg orally in subsequent experiments.

[5] = test system: popliteal lymph node and spleen T-cells; assay: Cytokine profiles (capture ELISA) after feeding or nasal administration and immunization of non-transgenic littermates; type: in vivo, SWISSXXB6D2F1 mice; details: then immunized, ten days later
Method: Levels of IL-4, IL-2, IL-10, TGF-β and IFNγ in supernatants were determined by capture ELISA as described. […] Briefly, supernatants were added to microtiter (Maxisorp) plates, previously coated with rat anti-mouse IL-4, IL-2, IL-10, TGF-β or IFN-γ monoclonal antibodies (capture antibodies, Pharmingen; 1 µg/ml at 4°C over night) and blocked with BSA-diluent/blocking solution (KPL). Plates were washed, and standards and samples were added for another overnight incubation at 4°C. Bound cytokine was detected by the addition of ABTS (Kirkegaard & Perry). Wells were washed, and cytokine levels determined using biotinylated rat anti-mouse IL-4, IL-2, IL-10, TGF-β or IFN-γ monoclonal antibodies (detecting antibodies, Pharmingen) and a peroxide visualization system (peroxidase-labeled streptavidin). IL-2 and IL-4 were analyzed after 24 hours of cell incubation with antigen, IL-10 and IFN-γ after 40 hours and TGF-β after 72 hours. Cytokine levels were calculated from a log-log plot of absorbance vs. concentration of recombinant cytokines (Pharmingen), and results are expressed in pg/mL (for IL-4, IL-2, IL-10, TGF-β and IFN-γ). Threshold sensitivities of ELISA assays were 5 pg/mL, 10 pg/mL and 2.5 ng/mL for IL-4, IL-2 and IFN-γ, respectively.
Feeding and Immunization: SWISSXXB6D2F1 mice were fed with [1-40]Aβ 75 µg/feeding x 5 or nasally administered with 25 µg/application x 3, and 2 days after the last treatment, were immunized with 100 µg [1-40]Aβ in 50 µg CFA. Ten days later, the popliteal lymph node and spleen T-cells were checked for cytokine production as described above.

PDAPP mice [6] = assay: β-amyloid plaque load in brain sections (visual and computer assisted image analysis); type: in vivo
From the text: Transgenic PDAPP mice were acquired from Athena Neurosciences, Inc. (South San Francisco, CA). These mice express a human gene encoding a mutant form of β-amyloid precursor protein and progressively develop β-amyloid deposits in the hippocampus and cerebral cortex in a manner similar to that seen in Alzheimer's disease. The β-amyloid deposits in the transgenic mice become associated with activated microglial cells, reactive astrocytes and other features of the periplaque inflammatory response seen in Alzheimer's disease brains.
4 to 5 month old PDAPP mice were fed or nasally administered either [1-40]β-amyloid peptide or a control protein (myelin basic protein or ovalbumin in amounts of 50 or 500 µg per feeding). Administration was carried out three (nasal) or five times consecutively (oral) during an initial one week period, and then on a weekly basis until the animals were between 11 and 12 months old. The orally administered β-amyloid peptide was in a dosage of 10 or 100 µg, and the nasally administered β-amyloid was in a dosage of 5 or 25 µg. […]
Specificially, results are shown for both visual and computer assisted image analysis of β-amyloid plaque load for the 8 experimental groups of mice that were tested; values are shown for each mouse in the relevant group. […] The visual assessment of plaque load was scored according to the table shown at the bottom of Figure 9A.

PDAPP mice [7] = assay: Immunoreactivity tests on brain sections (immunological markers and cytokines); type: in vivo; details: mice treated mucosally; Figures 9A, 9B
Method: 4 to 5 month old PDAPP mice were fed or nasally administered either [1-40]β-amyloid peptide or a control protein (myelin basic protein or ovalbumin in amounts of 50 or 500 µg per feeding). Administration was carried out three (nasal) or five times consecutively (oral) during an initial one week period, and then on a weekly basis until the animals were between 11 and 12 months old. The orally administered β-amyloid peptide was in a dosage of 10 or 100 µg, and the nasally administered β-amyloid was in a dosage of 5 or 25 µg.
The feeding and nasal administration of β-amyloid peptide, or ovalbumin to PDAPP mice was conducted among the following mice groups: Group 0: Non treated; mice nos. 0.1-0.7 Group 1: fed [1-40]β-amyloid peptide 100µg/feeding; mice nos. 1.1-1.9 Group 2: fed [1-40]β-amyloid peptide 10µg/feeding; mice nos. 2.1-2.9 Group 3: nasal [1-40]β-amyloid peptide 25µg/treatment; mice nos. 3.1-3.9 Group 4: nasal [1-40]β-amyloid peptide 5µg/treatment; mice nos. 4.1-4.7 Group 5: fed ovalbumin 500µg/feeding; mice nos. 5.1-5.6 Group 6: nasal ovalbumin 50µg/treatment; mice nos. 6.1-6.6 Group 7: fed MBP 500µg/feeding; mice nos. 7.1-7.5 Group 8: nasal MBP 50µg/treatment; mice nos. 8.1-8.6
At the end of the treatment period, the mice were sacrificed and brains, popliteal lymph nodes and spleens removed. […]

β-amyloid = assay: Immunoassay of mouse antisera for IgG subtypes against β-amyloid (Down syndrome brain sections as capture antigen); type: in vivo, PDAPP mice; details: nasally treated with 25 µg; over controls; Figure 11
Method: In these experiments, the antisera were tested in an immunoassay for the presence of IgG subtypes against β-amyloid. In the immunoassay, Down syndrome brain sections, which contain large amounts of β-amyloid, were employed as "capture" antigen. IgG in the mice antisera were bound to the sections, and the presence of IgG subtypes in the bound antibodies distinguished by secondary (2°) antibodies specific for each subtype. […] These antibodies are associated with Th2 type cellular immune responses.

PLN [8] = details: mucosally administered, immunized 10 days prior to sacrifice
Method: Levels of IL-4, IL-2, IL-10, TGF-β and IFNγ in supernatants were determined by capture ELISA as described. Friedman, A., et al., Proc. Nat'l Acad. Sci. U.S.A., 91, 6688 (1994); Yang, X., et al., J. Immunol., 150, 4354 (1993). Briefly, supernatants were added to microtiter (Maxisorp) plates, previously coated with rat anti-mouse IL-4, IL-2, IL-10, TGF-β or IFN-γ monoclonal antibodies (capture antibodies, Pharmingen; 1 µg/ml at 4°C over night) and blocked with BSA-diluent/blocking solution (KPL). Plates were washed, and standards and samples were added for another overnight incubation at 4°C. Bound cytokine was detected by the addition of ABTS (Kirkegaard & Perry). Wells were washed, and cytokine levels determined using biotinylated rat anti-mouse IL-4, IL-2, IL-10, TGF-β or IFN-γ monoclonal antibodies (detecting antibodies, Pharmingen) and a peroxide visualization system (peroxidase-labeled streptavidin). IL-2 and IL-4 were analyzed after 24 hours of cell incubation with antigen, IL-10 and IFN-γ after 40 hours and TGF-β after 72 hours. Cytokine levels were calculated from a log-log plot of absorbance vs. concentration of recombinant cytokines (Pharmingen), and results are expressed in pg/mL (for IL-4, IL-2, IL-10, TGF-β and IFN-γ). Threshold sensitivities of ELISA assays were 5 pg/mL, 10 pg/mL and 2.5 ng/mL for IL-4, IL-2 and IFN-γ, respectively.
Two mice from each of groups 1, 5, and 8 were immunized with β-amyloid peptide 10 days prior to sacrifice.

PLN [9] = details: mice of certain strains (e.g., C3H/EB and DBA/1) mucosally tolerized
[10] = test system: subjects with early-stage dementia; details: 44 subjects with early-stage dementia; cited from earlier work
[11] = at least pursuant to nasal administration of 25 µg
[12] = fed 75 µg/feeding x 5 or nasal 25 µg/application x 3

Cl.Nc1c2c(nc3ccccc13)CCCC2.O [TACRINE, 1,2,3,4-tetrahydro-9-acridinamine monohydrochloride monohydrate]
efficacy for treating Alzheimer's disease ([1]; community-dwelling subjects with mild or moderate dementia): only partially effective
serum aminotransferase levels ([1]; safety concern, may indicate hepatocellular injury): elevation

[1-40]β-amyloid peptide: β-amyloid peptide fragment [1-40], sequence derived from β-amyloid precursor protein; antigen given orally or nasally
proliferation of spleen cells (spleen T-cells): significant suppression of proliferation
proliferation in popliteal lymph nodes [2]: suppression of proliferation
proliferative response to the peptide after immunization [3]: many strains of normal mice (not transgenic mice, not Alzheimer's model) respond
secretion of IL-2 in spleen cells ([4]; at 5 µg fed and 50 µg nasal, Fig. 5B): Suppression of IL-2 secretion was clear
secretion of IL-10 ([4]; fed 5, 50 or 500 µg/feeding for 5 days or nasal 5 or 50 µg/application for 3 days, Figures 4A, 4B): significant enhancement of IL-10 in at least one of spleen and PLN cells treated with at least one dose
secretion of TGF-β in spleen cells ([4]; fed 5 and 50 µg/feeding for 5 days or nasal 50 µg/application for 3 days, Figure 6B): enhanced secretion
secretion of IL-2 in popliteal lymph nodes ([4]; nasal administration (5 or 50 µg/application for 3 days), Fig. 5A): Suppression of IL-2 secretion was clear
in vitro IFN-γ response to Aβ stimulation [5, 11]: reduced in vitro response
in vitro IL-2 response to Aβ stimulation [5, 11]: reduced in vitro response
in vitro IL-10 response to Aβ stimulation [5, 12]: increased response
in vitro TGF-β response to Aβ stimulation [5, 12]: increased response
difference in β-amyloid deposits versus controls (1-tailed Mann-Whitney U-test) (PDAPP mice [6]; nasally administered 25 µg): statistically significant
development of β-amyloid deposits (PDAPP mice [6]; oral 10 or 100 µg or nasal 5 or 25 µg, weekly from 4-5 to 11-12 months of age, versus control groups): fewer β-amyloid deposits
microglial activation in the brain (PDAPP mice [7]): decreased microglial activation
production of inflammatory cytokines in the brain (PDAPP mice [7]): decreased production
IgG1 class antibodies against β-amyloid in antisera (β-amyloid): increase
production of IL-2 (PLN [8]; Figure 12): decreased production
production of IFN-γ (PLN [8]; Figure 14): decreased production
production of IL-6 (PLN [8]; Figure 15): decreased production
production of IL-10 (PLN [8]; Figure 16): increased production
production of TGF-β (PLN [8]; Figure 17): increased production
PLN proliferation (PLN [9]): decreased PLN proliferation

COc1ccc2c(c1)c(CC(=O)O)c(C)n2C(=O)c1ccc(Cl)cc1 [indomethacin]
mental function during the study [10]: did not deteriorate
